{"source": "paper PMC12249582", "about": "“Ruxolitinib Modulates P-Glycoprotein Function, Delays T Cell Activation, and Impairs CCL19 Chemokine-Directed Migration in Human Cytotoxic T Lymphocytes” (International Journal of Molecular Sciences, 2025)", "target": "T1, P-glycoprotein (Pgp/ABCB1) (Homo sapiens, UniProt P08183)", "T1 construct": "human Pgp stably expressed in NIH-3T3 MDR1 cells (cells and raw membrane preparations)", "T1 sequence (P08183 whole entry)": "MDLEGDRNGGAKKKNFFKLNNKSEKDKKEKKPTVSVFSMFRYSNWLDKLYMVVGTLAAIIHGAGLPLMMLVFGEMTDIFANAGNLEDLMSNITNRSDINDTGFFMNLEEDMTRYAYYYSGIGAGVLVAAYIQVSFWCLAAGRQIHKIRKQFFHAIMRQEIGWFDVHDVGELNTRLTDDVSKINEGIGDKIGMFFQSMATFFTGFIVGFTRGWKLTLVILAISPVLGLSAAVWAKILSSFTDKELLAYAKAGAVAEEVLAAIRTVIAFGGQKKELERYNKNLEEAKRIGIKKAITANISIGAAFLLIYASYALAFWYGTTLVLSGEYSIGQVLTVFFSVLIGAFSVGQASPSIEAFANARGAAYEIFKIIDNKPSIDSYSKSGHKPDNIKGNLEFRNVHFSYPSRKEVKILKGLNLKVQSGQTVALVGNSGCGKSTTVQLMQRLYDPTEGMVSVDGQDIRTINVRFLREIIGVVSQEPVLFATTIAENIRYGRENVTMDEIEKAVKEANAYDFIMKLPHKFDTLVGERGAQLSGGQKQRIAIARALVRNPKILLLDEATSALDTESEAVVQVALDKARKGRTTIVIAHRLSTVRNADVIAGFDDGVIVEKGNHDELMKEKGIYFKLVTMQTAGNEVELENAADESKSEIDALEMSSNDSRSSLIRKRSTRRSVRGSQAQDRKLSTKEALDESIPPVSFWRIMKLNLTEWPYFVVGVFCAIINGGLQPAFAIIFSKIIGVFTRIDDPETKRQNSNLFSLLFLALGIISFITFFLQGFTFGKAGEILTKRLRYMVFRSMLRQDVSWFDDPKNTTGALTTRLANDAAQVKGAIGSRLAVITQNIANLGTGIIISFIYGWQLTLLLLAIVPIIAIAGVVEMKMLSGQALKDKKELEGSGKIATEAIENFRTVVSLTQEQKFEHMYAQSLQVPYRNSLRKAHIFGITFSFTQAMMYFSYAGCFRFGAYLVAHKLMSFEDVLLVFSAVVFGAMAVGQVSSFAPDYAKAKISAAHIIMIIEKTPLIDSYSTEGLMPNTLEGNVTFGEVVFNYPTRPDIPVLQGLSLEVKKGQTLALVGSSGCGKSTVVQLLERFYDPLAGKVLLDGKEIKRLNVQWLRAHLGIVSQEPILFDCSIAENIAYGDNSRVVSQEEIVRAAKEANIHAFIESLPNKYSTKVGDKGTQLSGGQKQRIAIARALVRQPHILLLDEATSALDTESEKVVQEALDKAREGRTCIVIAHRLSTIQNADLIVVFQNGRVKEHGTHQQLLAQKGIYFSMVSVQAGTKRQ", "assay": "calcein-AM efflux inhibition in NIH-3T3 MDR1 cells (IC50); vanadate-sensitive ATPase stimulation in Pgp membranes", "type": "cell-based"}
{"compound": "N#CC[C@H](C1CCCC1)n1cc(-c2ncnc3[nH]ccc23)cn1", "note": "[RUX, ruxolitinib]", "values": [{"measurement": "IC50", "result": "~13", "unit": "µM"}]}
